Reference: ChEMBL document CHEMBL4321846, “Discovery of a Potent and Selective Oral Inhibitor of ERK1/2 (AZD0364) That Is Efficacious in Both Monotherapy and Combination Therapy in Models of Nonsmall Cell Lung Cancer (NSCLC)” (J Med Chem, 2019)

How the values were obtained:
[1] = target: T1, Mitogen-activated protein kinase 1 (Homo sapiens, UniProt P28482)
[2] = target: T1, Mitogen-activated protein kinase 1; remark: listed apart in the source
[3] = target: T1, Mitogen-activated protein kinase 1; remark: listed apart in the source
[4] = target: T1, Mitogen-activated protein kinase 1; remark: listed apart in the source
[5] = target: T1, Mitogen-activated protein kinase 1; test: Inhibition of MEK U911-activated ERK2 (unknown origin) using ERKtide as substrate preincubated for 20 mins followed by substrate addition in presence of ATP at Km concentration after 20 mins by rapidfire mass spectrometry analysis
[6] = target: Voltage-gated inwardly rectifying potassium channel KCNH2 (Homo sapiens, UniProt Q12809)
[7] = target: T1, Mitogen-activated protein kinase 1; test: Inhibition of MEK U911-activated ERK2 (unknown origin) using ERKtide as substrate preincubated for 20 mins followed by substrate addition in presence of 1 mM ATP after 10 mins by rapidfire mass spectrometry analysis
[8] = target: T2, Mitogen-activated protein kinase; ERK1/ERK2 (Homo sapiens, UniProt P27361+P28482); test: Inhibition of ERK1/2 in human A375 cells assessed as inhibition of ERK phosphorylation after 2 hrs; type: cell-based
[9] = target: T2, Mitogen-activated protein kinase; ERK1/ERK2; test: Inhibition of ERK1/2 in human A375 cells assessed as inhibition of RSK phosphorylation after 2 hrs; type: cell-based
[10] = target: T1, Mitogen-activated protein kinase 1; remark: listed apart in the source

T1 sequence (P28482 whole entry): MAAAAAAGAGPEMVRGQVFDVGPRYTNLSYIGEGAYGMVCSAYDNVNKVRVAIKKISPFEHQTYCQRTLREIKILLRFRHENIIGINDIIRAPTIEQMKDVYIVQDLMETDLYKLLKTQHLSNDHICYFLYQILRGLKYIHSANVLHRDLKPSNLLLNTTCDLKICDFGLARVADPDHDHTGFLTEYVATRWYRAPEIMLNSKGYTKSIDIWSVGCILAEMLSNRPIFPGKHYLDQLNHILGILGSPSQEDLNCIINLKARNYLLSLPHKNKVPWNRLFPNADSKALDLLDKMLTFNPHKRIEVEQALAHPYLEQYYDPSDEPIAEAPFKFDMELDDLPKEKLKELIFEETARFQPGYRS
Sequence of Voltage-gated inwardly rectifying potassium channel KCNH2 (Q12809 whole entry): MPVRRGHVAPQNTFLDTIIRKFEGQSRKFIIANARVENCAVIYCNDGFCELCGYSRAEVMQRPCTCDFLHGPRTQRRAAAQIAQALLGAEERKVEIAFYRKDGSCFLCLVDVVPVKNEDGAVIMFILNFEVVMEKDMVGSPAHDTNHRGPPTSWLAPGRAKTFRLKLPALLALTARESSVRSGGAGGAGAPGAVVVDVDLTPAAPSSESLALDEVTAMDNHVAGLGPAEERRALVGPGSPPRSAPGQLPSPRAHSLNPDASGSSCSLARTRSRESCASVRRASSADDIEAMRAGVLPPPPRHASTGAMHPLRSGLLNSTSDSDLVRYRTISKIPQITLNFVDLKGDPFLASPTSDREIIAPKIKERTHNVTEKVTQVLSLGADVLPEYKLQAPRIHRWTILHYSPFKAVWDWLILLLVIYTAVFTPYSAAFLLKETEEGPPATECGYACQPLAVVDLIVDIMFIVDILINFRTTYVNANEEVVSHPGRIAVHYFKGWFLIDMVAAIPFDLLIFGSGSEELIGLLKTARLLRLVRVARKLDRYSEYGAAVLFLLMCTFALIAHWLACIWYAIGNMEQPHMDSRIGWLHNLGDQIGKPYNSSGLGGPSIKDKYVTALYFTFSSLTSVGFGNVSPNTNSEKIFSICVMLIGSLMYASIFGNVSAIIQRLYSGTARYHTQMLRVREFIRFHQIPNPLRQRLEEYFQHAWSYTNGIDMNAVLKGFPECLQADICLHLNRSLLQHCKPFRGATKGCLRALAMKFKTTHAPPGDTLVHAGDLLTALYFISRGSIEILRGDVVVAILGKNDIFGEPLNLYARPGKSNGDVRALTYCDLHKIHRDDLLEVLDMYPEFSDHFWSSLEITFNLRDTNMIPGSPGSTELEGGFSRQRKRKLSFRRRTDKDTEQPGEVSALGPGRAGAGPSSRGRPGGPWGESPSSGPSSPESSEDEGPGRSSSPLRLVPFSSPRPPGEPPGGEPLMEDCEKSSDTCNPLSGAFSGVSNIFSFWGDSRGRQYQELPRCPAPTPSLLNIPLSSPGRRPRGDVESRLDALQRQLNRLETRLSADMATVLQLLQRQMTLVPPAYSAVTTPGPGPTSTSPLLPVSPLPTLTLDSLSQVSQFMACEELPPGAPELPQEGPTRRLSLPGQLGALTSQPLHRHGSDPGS

Structure (SMILES)	T1/2 [1]	Kdiss [2]	Ka [3]	T1/2 [4]	IC50 [5]	IC50 [6]	IC50 [7]	IC50 [8]	IC50 [9]	Ka [10]
Cn1nccc1Nc1nccc(-c2ccn([C@H](CO)c3ccc(Cl)c(F)c3)c(=O)c2)n1	0.0133 h	9.9 ×10⁻³ /s	9.8 ×10⁻⁶ /M/s	0.02 h	–	–	–	–	–	–
Cc1cnc(Nc2ccnn2C)nc1-c1cn2c(n1)C(=O)N(Cc1ccc(F)c(F)c1)[C@@H](C)C2	–	–	–	–	< 0.3 nM	23000 nM	0.32 nM	3.4 nM	38 nM	–
COC[C@H]1Cn2cc(-c3nc(Nc4ccnn4C)ncc3C)cc2C(=O)N1Cc1cccc(C)n1	–	–	–	–	< 0.3 nM	–	0.6 nM	30 nM	60 nM	–
Cc1cnc(Nc2ccnn2C)nc1-c1cc2n(c1)CCN(Cc1cccc(Cl)c1)C2=O	–	–	–	–	< 0.3 nM	–	0.13 nM	> 14000 nM	10 nM	–
O=C(Nc1ccc2[nH]nc(-c3ccncc3)c2c1)[C@@H]1CCN(CC(=O)N2CCN(c3ccc(-c4ncccn4)cc3)CC2)C1	2.12 h	4.4 ×10⁻⁵ /s	1.3 ×10⁻⁶ /M/s	4.85 h	–	–	–	–	–	9.4 ×10⁻⁵ /M/s
